# Experimental data: patent US8206704B2, “Use of GCC ligands” (priority 2003, dated 2012)
# “Also recorded” adds a separate entry of the source. No end group written: not given here.
# Tests used:
# [1] = target: cAMP-dependent protein kinase I and II; conditions: refs. 50 and 51; cited from earlier work
# [2] = tested on: T84 cells; experiment: DNA synthesis ([methyl-3H]thymidine incorporation), tumor cell proliferation; assay type: cell-based, human; conditions: for Effect of agent on inhibition of proliferation induced by ST: with ST, 1 μM KT5823, 50 μM RP8pCPT-cGMP, 0.5 μM KT5720, 50 μM RP-cAMPs, 10 μM milrinone, 200 μM L-DLT, 20 μM BAPTA, 50 μM DTR, 1 μM PHE, 100 nM CTX
# Experimental: T84 (passages 50-70) and SW480 (passage 100-120) human colon carcinoma cells, obtained from the American Type Culture Collection, were maintained at 37° C. (5% CO2) in DMEM/F12 containing 2.5 mM L-glutamine, 100 units/ml penicillin, 100 μg/ml streptomycin, and 10% (vol/vol) FBS.
# Exponentially growing cancer cells (˜60% confluent in 96-well plates) were synchronized by serum starvation in Eagle's minimal essential medium (EMEM) for 48 h, followed by proliferative induction with 10 mM L-glutamine (in EMEM) for 24 h. ST and other agents were added to cells 15 min before 0.2 μCi per well (1 Ci=37 GBq) of [methyl-3H]thymidine, which was added for 3 h, followed by quantification of [3H]thymidine incorporation into DNA (15).
# [3] = tested on: matrix metalloproteinase 9 release from human colorectal cancer cells; experiment: Release of matrix metalloproteinase 9 (MMP 9 activity, western blot); assay type: cell-based; conditions: ST 1 micromolar
# Text: Preventing the secretion of this digestive enzyme will inhibit the ability of these tumor cells to invade the wall of the intestine. […] ST did this at a concentration of 1 micromolar.
# [4] = tested on: human colorectal cancer cells; experiment: Actin cytoskeleton organization (confocal microscopy, cell spreading); assay type: cell-based; conditions: ST 1 micromolar, confocal microscopy
# Text: ST prevented human colorectal cancer cells from organizing their actin cytoskeleton. […] The latter is a functional readout of the ability of cells to organize actin. Human colorectal cancer cells treated with ST cannot spread their bodies out in vitro. An inability to organize their actin cytoskeletons will prevent these cells from being able to migrate through tissues to metastasize.
# [5] = target: PKG-I and -II; conditions: cited from earlier work
# [6] = tested on: T84 cells; experiment: 45Ca2+ transport (calcium influx); assay type: cell-based, human; conditions: ST 1 μM, 20 min; 8-br-cGMP 5 mM, 40 min
# Experimental: Exponentially growing T84 cells (40-80% confluent in 24-well plates) were incubated in media (S-MEM, Life Technologies, Rockville, Md.) containing low (300 μM) CaCl2 to maximize the signal-to-noise ratio for L-cis-diltiazem (L-DLT)-sensitive 45Ca2+ transport determinations. Cells were treated with ST, 8-br-cGMP, and/or L-DLT for the indicated times, followed by the addition of 1 μCi per well 45Ca2+ for the last 15 min. Incubations were terminated by washing four times in cold PBS buffer (145 mM NaCl/5 mM KCl/1 mM MgCl2/10 mM glucose/5 mM Hepes, pH 7.4) containing 0.1 mM EGTA, cells were solubilized with cold NaOH (0.1 M), and radioactivity was quantified in 100-μl aliquots.
# [7] = tested on: human T84 colon cancer cells; experiment: Perforated whole-cell patch-clamp current measurements; assay type: cell-based; conditions: Ca-free solution, n=5
# [8] = tested on: human T84 colon cancer cells; experiment: as above; assay type: cell-based; conditions: for Induction of L-DLT-sensitive membrane current: 500 nM ST, 2.5 mM 8-br-cGMP
# Experimental: The perforated mode of the whole-cell patch-clamp recording was applied to human T84 colon cancer cells. Membrane potential was controlled through the electrical access obtained by membrane perforation induced by amphotericin B (9, 10). The pipette solution supplemented by amphotericin B ([…]) contained: 140 mM KCl, 1 mM MgCl2, 5 mM EGTA, and 20 mM Hepes-KOH (pH 7.3). The bath solution contained (in mM): 136.5 mM NaCl, 5.4 mM KCl, 1.8 mM CaCl2, 0.5 mM MgCl2, 5.5 mM glucose, and 5 mM Hepes-NaOH (pH 7.4). Voltage-clamp recordings were performed with an Axopatch 1-C patch-clamp amplifier (Axon Instruments, Foster City, Calif.) at 31±1° C. using an HCC-100 temperature controller (Dagan Instruments, Minneapolis; ref. 19).
# [9] = tested on: Caco 2 human colon carcinoma cells; experiment: Inhibition of proliferation of cancer cells; assay type: cell-based; conditions: after exposure
# [10] = tested on: T84 human colon carcinoma cells; experiment: Inhibition of proliferation of cancer cells; assay type: cell-based; conditions: after exposure
molecule,measurement,setting,value
Nc1ncnc2c1ncn2[C@@H]1O[C@@H]2CO[P@@](O)(=S)O[C@H]2[C@H]1O [RP-cAMPs],Ki,[1],10 µM
same,Effect of agent on inhibition of proliferation induced by ST,[2],did not alter
Nc1nc2c(ncn2[C@@H]2O[C@@H]3COP(=O)(O)O[C@H]3[C@H]2O)c(=O)[nH]1 [cyclic GMP],Release of matrix metalloproteinase 9,[3],precisely mimicked
same,Organization of actin cytoskeleton,[4],prevented this organization
Nc1nc2c(nc(Sc3ccc(Cl)cc3)n2C2OC3COP(O)(=S)OC3C2O)c(=O)[nH]1 (centres unmarked) [RP8pCPT-cGMP],Effect of agent on inhibition of proliferation induced by ST,[2],did not alter
same,Ki,[5],0.5 µM
NC(=Nc1ccccc1)NC(=O)c1nc(Cl)c(N)nc1N [phenamil],Effect of agent on inhibition of proliferation induced by ST,[2],did not affect; also recorded: did not reverse
CC(=O)OCOC(=O)CN(CC(=O)OCOC(C)=O)c1ccccc1OCCOc1ccccc1N(CC(=O)OCOC(C)=O)CC(=O)OCOC(C)=O [BAPTA-AM],Effect of agent on inhibition of proliferation induced by ST,[2],reversal; also recorded: abolished
Nc1nc2c(nc(Br)n2[C@@H]2O[C@@H]3COP(=O)(O)O[C@H]3[C@H]2O)c(=O)[nH]1 [8-br-cGMP],Influx of 45Ca2+ into colon cancer cells,[6],induced influx
same,Induced current after removal of [Ca2+]ext,[7],0.07±0.04 nA
same,Inhibition of cell proliferation / DNA synthesis by 8-br-cGMP,[2]; 8-br-cGMP 5 mM,inhibited tumor cell DNA synthesis; also recorded: inhibition of cell proliferation
same,"Induction of Ca2+-dependent K+ current (KCa), charybdotoxin-sensitive",[8],induced
same,Reversal potential derived from the induced current-voltage relationship,[8],~−70 mV
same,Induction of L-DLT-sensitive membrane current,[8],induced an L-DLT-sensitive current
same,Induction of L-DLT-sensitive membrane current,[8]; listed as 8-Br-cGMP,induces an L-DLT-sensitive current
same,Induced current in the presence of [Ca2+]ext,"[8]; control, 1.8 mM CaCl2, n=5",0.21±0.04 nA
same,Shift of the reversal potential ΔEm,"[8]; ramp pulses, holding potential −40 mV, mean±SEM",−25.8±4.6 mV
CCCCCCOC(=O)[C@]1(O)C[C@@H]2O[C@@]1(C)n1c3ccccc3c3c4c(c5c6ccccc6n2c5c31)C(=O)NC4 [KT5720],Ki,[1],0.056 µM
same,Effect of agent on inhibition of proliferation induced by ST,[2],did not alter
C[C@H](CCC(=O)O)C[C@H](C)C[C@H](C)C(=O)/C=C(\O)[C@H](C)C[C@H](C)C/C=C/[C@@H](C)[C@@H](O)[C@@H](C)[C@@H](O)C[C@@H]1CC[C@@](C)([C@H]2CC[C@@](C)([C@@H](C)O)O2)O1 [Ionomycin],Effect on cell proliferation of agent on its own compared with ST,"[2]; ionomycin 1 μM, ST 1 μM",mimicked
O=C1CN(/N=C/c2ccc(-c3ccc([N+](=O)[O-])cc3)o2)C(O)=N1 [Dantrolene],Effect of agent on inhibition of proliferation induced by ST,[2],did not reverse
same,Effect of agent on inhibition of proliferation induced by ST,[2]; listed as dantrolene,did not affect
Cc1[nH]c(=O)c(C#N)cc1-c1ccncc1 [milrinone],Effect of agent on inhibition of proliferation induced by ST,[2],did not alter
charybdotoxin (QFTNVSCTTSKECWSVCQRLHNTSRGKCMNKKCRCYS),Effect of agent on inhibition of proliferation induced by ST,[2],absence of charybdotoxin effect
same,Effect of agent on inhibition of proliferation induced by ST,[2]; listed as CTX,did not reverse
"uroguanylin: homologous ST receptor binding peptide produced locally in the intestine (NDDCELCVNVACTGCL; ends and bridges not checked; cysteine pairing not given here; UniProt Q16661 97-112, looked up)",Inhibition of proliferation of cancer cells,[9],inhibit the proliferation
same,Inhibition of proliferation of cancer cells,[10],inhibit the proliferation
COC(=O)[C@@]1(OC)C[C@H]2O[C@]1(C)n1c3ccccc3c3c4c(c5c6ccccc6n2c5c31)C(=O)N(C)C4 [KT5823],Effect of agent on inhibition of proliferation induced by ST,[2],did not alter
same,Ki,[5],0.234 µM
